What is called MIC80 is an inhibitory concentration at the 80% level, which refers to growth in some studies and to a panel of isolates in others. The term IC50 denotes the concentration that inhibits the measured activity by half. A low value points to greater potency in that assay. Broadly, the half-life is how long it takes for the measured level to halve.

Converted amounts (≈) assume the structure as drawn. The source made the active and inactive calls. The rule behind the calls is not given here.

Results on ten compounds are retold here after ChEMBL document CHEMBL6182926, “Design, Synthesis, and Biological Activity Evaluation of Deuterated Diphenyl Azole Alcohol-Based CYP51 Inhibitors” (J Med Chem, 2025).

For one data set, the system named is Cryptococcus neoformans. Description: Antifungal activity against Cryptococcus neoformans CGMCC 2.3161 assessed as inhibition of visible growth. The data set is classed as functional.
A further data set relates to Candida parapsilosis. Description: Antifungal activity against Candida parapsilosis GIM 2.190 assessed as inhibition of visible growth. It counts as functional. The conditions noted are these: Lodderomyces parapsilosis.
Data set [1] in a line: Metabolic stability in human liver microsomes assessed as compound remaining measured up to 60 mins by LC-MS/MS analysis. The data set is classed as ADME, Microsome. The conditions noted are these: for remaining at 1 h: liver microsomes, read-out: Activity. (Liver microsomes are vesicles of endoplasmic reticulum, rich in cytochrome P450 enzymes.)
Data set [2] deals with Candida albicans. Description: Antifungal activity against Candida albicans CPCC 400616 assessed as inhibition of visible growth. The data set is classed as functional.
The subject of data set [3] is Candida albicans. Description: Antifungal activity against Candida albicans SC 5314 assessed as inhibition of visible growth. It counts as functional.
A further data set deals with Candida tropicalis. Description: Antifungal activity against Candida tropicalis CGMCC 2.3739 assessed as inhibition of visible growth. It counts as functional.
For a further data set, the system named is Aspergillus fumigatus. Description: Antifungal activity against Aspergillus fumigatus CGMCC 3.7795 assessed as inhibition of visible growth. The data set is classed as functional.
A short description of data set [4]: Cytotoxicity against human HUVEC cells measured after 72 hrs by MTT assay. It counts as toxicity, cell-based. (In general: Formazan colour is commonly taken as a measure of viable cells.)
Data set [5] can be described thus: Metabolic stability in human liver microsomes assessed as half life by LC-MS/MS analysis. The conditions noted are these: for half-life: liver microsomes. It counts as ADME, Microsome.
In another data set the test system is Pichia kudriavzevii. Description: Antifungal activity against Candida krusei AS 2.1045 assessed as inhibition of visible growth. The data set is classed as functional.
In a further data set the test system is Nakaseomyces glabratus. Description: Antifungal activity against Clinical isolate Candida glabrata assessed as inhibition of visible growth. It counts as functional.
Data set [6] concerns Cell membrane. In words: Induction of loss of cell membrane integrity in Candida albicans SC5314 assessed as leakage of intracellular components into the extracellular environment at 16 microg/ml measured after 48 hrs incubation by transmission electron microscopy. The data set is classed as subcellular. The conditions noted are these: dose 16.0 µg/ml.
Data set [7] concerns Candida albicans. In words: In vivo anti-resistant activity against fluconazole-resistant Candida albicans strain 17# infected in cyclophosphamide-immunosuppressed ICR mouse model assessed as reduction in fungal burden in kidney at 10 mg/kg, oral gavage for 5 days post infection. It counts as functional, organism-based. The conditions noted are these: time 5.0 day, tested as the 2H-labelled form.

Data set [8] deals with Cell membrane. Description: Induction of loss of cell membrane integrity in Candida albicans SC5314 assessed as irregular cell morphology at 16 microg/ml measured after 48 hrs incubation by transmission electron microscopy. The conditions noted are these: dose 16.0 µg/ml, tested as the 2H-labelled form. The data set is classed as subcellular.
The subject of a further data set is Mus musculus. Description: In vivo antifungal activity against Candida albicans SC5314 infected in ICR mouse model assessed as mouse survival at 1 mg/kg, oral gavage measured for 21 days post infection. It counts as functional, organism-based. The conditions noted are these: time 21.0 day, tested as the 2H-labelled form.
Data set [9] deals with Candida albicans. In words: In vivo antifungal activity against Candida albicans SC5314 infected in cyclophosphamide-immunosuppressed ICR mouse model assessed as reduction in fungal burden in kidney at 5 mg/kg, oral gavage for 5 days post infection. The data set is classed as functional, organism-based. The conditions noted are these: time 5.0 day, tested as the 2H-labelled form.

The test system of data set [10] is Candida albicans. Description: In vivo anti-resistant activity against fluconazole-resistant Candida albicans strain 17# infected in cyclophosphamide-immunosuppressed ICR mouse model assessed as reduction in fungal burden in kidney at 5 mg/kg, oral gavage for 5 days post infection. It counts as functional, organism-based. The conditions noted are these: time 5.0 day, tested as the 2H-labelled form.

Data set [11] concerns Candida albicans. In words: Antifungal activity against Candida albicans CPCC 400616 assessed as suppression of hyphal formation (inhibition of yeast to hypha transition) at 2 microg/ml measured after 4 hrs by inverted microscopy. The data set is classed as functional, organism-based. The conditions noted are these: dose 2.0 µg/ml, tested as the 2H-labelled form.
Data set [12] deals with Candida albicans. Description: In vivo antifungal activity against Candida albicans SC5314 infected in cyclophosphamide-immunosuppressed ICR mouse model assessed as reduction in fungal burden in kidney at 1 mg/kg, oral gavage for 5 days post infection. The data set is classed as functional, organism-based. The conditions noted are these: time 5.0 day, tested as the 2H-labelled form.

In the case of `CN(Cc1ccc(N2CCN(Cc3ccc(F)cc3Br)CC2)cc1)CC(O)(Cn1cncn1)c1ccc(F)cc1F` (stereo not given), the MIC80 in the data set on Cryptococcus neoformans was determined as 0.012 µg/mL (≈ 0.0191 µM); with Candida parapsilosis, 0.006 µg/mL (≈ 0.00953 µM); with Candida albicans [2], 0.006 µg/mL (≈ 0.00953 µM); with Candida albicans [3], 0.006 µg/mL (≈ 0.00953 µM); in the data set on Candida tropicalis, 0.006 µg/mL (≈ 0.00953 µM); in the data set with Aspergillus fumigatus, 0.05 µg/mL (≈ 0.0794 µM). Further, the MIC80 with Pichia kudriavzevii and in the data set with Nakaseomyces glabratus was 0.05 µg/mL (≈ 0.0794 µM) in each case. Moreover, the remaining at 1 h in data set [1] is 0.936%. For the same compound, in [4], the midpoint of inhibition, the IC50 at 72 h, lay at 21 µM. Moreover, the half-life in [5] came out at 2.89 min.
Regarding `CN(Cc1ccc(-c2ccc(Cl)cc2)cc1)CC(O)(Cn1cncn1)c1ccc(F)cc1F` (stereo not given), the MIC80 in the data set with Cryptococcus neoformans stood at 0.012 µg/mL (≈ 0.0256 µM); in the data set with Candida parapsilosis, 0.006 µg/mL (≈ 0.0128 µM); in the data set with Candida albicans [2], 0.006 µg/mL (≈ 0.0128 µM); in the data set with Candida albicans [3] it was 0.006 µg/mL (≈ 0.0128 µM); in the data set with Candida tropicalis, 0.006 µg/mL (≈ 0.0128 µM); in the data set with Pichia kudriavzevii, 0.012 µg/mL (≈ 0.0256 µM). The MIC80 in the data set with Nakaseomyces glabratus was 0.012 µg/mL (≈ 0.0256 µM). Also, the Activity in [1] (microsomes, 1 h) was 21.3%. In addition, the t1/2 in [5] (microsomes) came to 9.23 min.
With `C[C@@H](N(C)Cc1ccc(-c2ccc(OC(F)(F)F)cc2)cc1)[C@](O)(Cn1cncn1)c1ccc(F)cc1F`, the result in the data set with Cell membrane [6], in the data set on Cell membrane [8], in the data set with Candida albicans [9] and in the data set on Candida albicans [10] was Active. Further, the Activity result was “Active; Compound Showed Far Superior Effect Than Fluconazole” with Candida albicans [7] and “Active; Low Dose Antifungal Activity Weaker Than Fluconazole (Positive Control)” in the data set on Candida albicans [12]. Further, in the data set with Mus musculus, the result was inactive. Further, the inhibition result with Candida albicans [11] was “Active”.
For the compound `[2H]C([2H])([2H])N(Cc1ccc(-c2ccc(Cl)c(F)c2)cc1)[C@H](C)[C@](O)(Cn1cncn1)c1ccc(F)cc1F`, the MIC80 in the data set on Cryptococcus neoformans, with Candida parapsilosis, with Candida albicans [2], in the data set with Candida albicans [3], with Candida tropicalis and in the data set with Aspergillus fumigatus was 0.006 µg/mL (≈ 0.0119 µM) in each case. Further, the MIC80 in the data set with Pichia kudriavzevii was found to be 0.006 µg/mL (≈ 0.0119 µM); with Nakaseomyces glabratus, 0.012 µg/mL (≈ 0.0238 µM). Further, in data set [1], the remaining at 1 h was 4.91%. Further, in data set [5], the half-life amounted to 14.1 min.
For `[2H]C([2H])([2H])N(Cc1ccc(-c2ccc(C(F)(F)F)cc2)nc1)[C@H](C)[C@](O)(Cn1cncn1)c1ccc(F)cc1F`, the MIC80 worked out at 0.012 µg/mL (≈ 0.0231 µM) in the data set on Cryptococcus neoformans; 0.006 µg/mL (≈ 0.0115 µM) in the data set on Candida parapsilosis; 0.006 µg/mL (≈ 0.0115 µM) with Candida albicans [2]; 0.012 µg/mL (≈ 0.0231 µM) in the data set with Candida albicans [3]; 0.012 µg/mL (≈ 0.0231 µM) in the data set on Candida tropicalis; 0.025 µg/mL (≈ 0.048 µM) in the data set on Aspergillus fumigatus. Besides, the MIC80 in the data set with Pichia kudriavzevii and in the data set with Nakaseomyces glabratus was 0.012 µg/mL (≈ 0.0231 µM) throughout.
In the case of `[2H]C([2H])([2H])N(Cc1ccc(-c2ccc(Cl)cc2F)nc1)[C@H](C)[C@](O)(Cn1cncn1)c1ccc(F)cc1F`, the MIC80 with Cryptococcus neoformans is 0.012 µg/mL (≈ 0.0238 µM); in the data set with Candida parapsilosis it was 0.006 µg/mL (≈ 0.0119 µM); in the data set on Candida albicans [2], 0.006 µg/mL (≈ 0.0119 µM); in the data set with Candida albicans [3], 0.012 µg/mL (≈ 0.0238 µM); in the data set on Candida tropicalis it was 0.012 µg/mL (≈ 0.0238 µM); with Aspergillus fumigatus, 0.05 µg/mL (≈ 0.099 µM). Besides, the MIC80 in the data set with Pichia kudriavzevii and with Nakaseomyces glabratus was 0.012 µg/mL (≈ 0.0238 µM) each time.
With `[2H]C([2H])([2H])N(Cc1ccc(-c2ccc(Cl)cc2)c(F)c1)[C@H](C)[C@](O)(Cn1cncn1)c1ccc(F)cc1F`, the MIC80 in the data set on Cryptococcus neoformans came out at 0.012 µg/mL (≈ 0.0238 µM); in the data set on Candida parapsilosis it was 0.006 µg/mL (≈ 0.0119 µM); in the data set with Candida albicans [2], 0.006 µg/mL (≈ 0.0119 µM); in the data set on Candida albicans [3] it was 0.006 µg/mL (≈ 0.0119 µM); in the data set on Candida tropicalis it was 0.006 µg/mL (≈ 0.0119 µM); in the data set with Aspergillus fumigatus, 0.025 µg/mL (≈ 0.0496 µM). The MIC80 worked out at 0.012 µg/mL (≈ 0.0238 µM) in the data set with Pichia kudriavzevii and 0.025 µg/mL (≈ 0.0496 µM) in the data set with Nakaseomyces glabratus.
On to `[2H]C([2H])([2H])N(Cc1ccc(-c2ccc(C(F)(F)F)cc2)cc1)[C@H](C)[C@](O)(Cn1cncn1)c1ccc(F)cc1F`, for which the MIC80 was 0.012 µg/mL (≈ 0.0231 µM) with Cryptococcus neoformans; 0.006 µg/mL (≈ 0.0115 µM) in the data set on Candida parapsilosis; 0.006 µg/mL (≈ 0.0115 µM) with Candida albicans [2]; 0.006 µg/mL (≈ 0.0115 µM) in the data set with Candida albicans [3]; 0.006 µg/mL (≈ 0.0115 µM) with Candida tropicalis; 0.025 µg/mL (≈ 0.0481 µM) with Aspergillus fumigatus. In addition, the MIC80 in the data set with Pichia kudriavzevii and in the data set with Nakaseomyces glabratus was 0.012 µg/mL (≈ 0.0231 µM) each time. In data set [1], the remaining at 1 h worked out at 29%. Further, the half-life in [5] came out at 35.1 min.
With `[2H]C([2H])([2H])N(Cc1ccc(-c2ccc(Cl)c(F)c2)nc1)[C@H](C)[C@](O)(Cn1cncn1)c1ccc(F)cc1F`, the MIC80 came out at 0.012 µg/mL (≈ 0.0238 µM) with Cryptococcus neoformans; 0.006 µg/mL (≈ 0.0119 µM) in the data set with Candida parapsilosis; 0.012 µg/mL (≈ 0.0238 µM) with Candida albicans [2]; 0.012 µg/mL (≈ 0.0238 µM) in the data set on Candida albicans [3]; 0.006 µg/mL (≈ 0.0119 µM) with Candida tropicalis; 0.025 µg/mL (≈ 0.0495 µM) with Aspergillus fumigatus. The MIC80 in the data set with Pichia kudriavzevii and in the data set with Nakaseomyces glabratus was 0.012 µg/mL (≈ 0.0238 µM) throughout.
With `[2H]C([2H])([2H])N(Cc1ccc(-c2ccc(Cl)cc2)nc1)[C@H](C)[C@](O)(Cn1cncn1)c1ccc(F)cc1F`, the MIC80 stood at 0.006 µg/mL (≈ 0.0123 µM) in the data set on Cryptococcus neoformans; 0.006 µg/mL (≈ 0.0123 µM) with Candida parapsilosis; 0.006 µg/mL (≈ 0.0123 µM) with Candida albicans [2]; 0.006 µg/mL (≈ 0.0123 µM) with Candida albicans [3]; 0.006 µg/mL (≈ 0.0123 µM) with Candida tropicalis; 0.05 µg/mL (≈ 0.103 µM) with Aspergillus fumigatus. Moreover, the MIC80 with Pichia kudriavzevii and in the data set with Nakaseomyces glabratus was 0.012 µg/mL (≈ 0.0246 µM) throughout. Further, in [1], the remaining at 1 h amounted to 1.07%. Moreover, the half-life in data set [5] was 2.3 min.
